# Laboratory results reported in publication PMC12064818, “A general assay platform to study protein pharmacology using ligand-dependent structural dynamics” (Nature Communications, 2025).
# Read-outs that look alike come from different tables or passages of the source.
# Columns and labels:
# FLuc-C-HiBiT = biological target: T1, FLuc-C-HiBiT (Photinus pyralis, UniProt P08659); test: biochemical; settings: enzyme activity, 10 uM ATP; read-out: IC50 or SDR50 (mM) / FLuc E
# T1 construct: firefly luciferase with C-terminal HiBiT tag, E. coli expressed
# NLuc = biological target: T2, NLuc (Oplophorus gracilirostris, UniProt Q9GV45, A31E/A60N/A81I/F95D/I117V/K70R/L54V/L99Q/M102K/N193R/P142E/Q151K/Q38R/Q45L/V71I/Y165I); assay type: biochemical; settings: - ATP
# T2 construct: His tag (inferred from IMAC purification); made in house; host or cells: E. coli
# Outline: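 Luminescence was read 10 min after Nano-Glo reagent addition. Enzyme was 1 nM NLuc in PBS/0.05% IGEPAL buffer, with or without ATP.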
# [1] = biological target: FLuc-C-NLuc (firefly luciferase) (Photinus pyralis, UniProt P08659, form not given/L550V); test: SDR assay, FLuc-C-NLuc; settings: - ATP
# P. pyralis FLuc = P. pyralis FLuc (Photinus pyralis, UniProt P08659); test: FLuc enzymatic luminescence assay, P. pyralis FLuc; assay type: biochemical; settings: FLuc enzymatic assay; for IC50: read-out: IC50 or SDR50 (mM) FLuc E
# Outline: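 Runs with and without 10 µM ATP: compounds were pre-incubated with FLuc (1–10 nM, PBS pH 7.4) at ambient temperature, light-protected, for 30–60 min. Luminescence was imaged 5 min after adding 10 µM D-luciferin (final). Inhibition was scaled between DMSO neutral and no-enzyme controls.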
# [2] = biological target: FLuc-C-HiBiT (firefly luciferase) (Photinus pyralis, UniProt P08659, form not given/L550V); test: SDR assay, FLuc-C-HiBiT; settings: for % Activity (max response, + ATP) / % Activity (max response, - ATP): SDR max. response, clade S
# Chain of FLuc-C-HiBiT (firefly luciferase) (P08659 2-550 L550V, form open): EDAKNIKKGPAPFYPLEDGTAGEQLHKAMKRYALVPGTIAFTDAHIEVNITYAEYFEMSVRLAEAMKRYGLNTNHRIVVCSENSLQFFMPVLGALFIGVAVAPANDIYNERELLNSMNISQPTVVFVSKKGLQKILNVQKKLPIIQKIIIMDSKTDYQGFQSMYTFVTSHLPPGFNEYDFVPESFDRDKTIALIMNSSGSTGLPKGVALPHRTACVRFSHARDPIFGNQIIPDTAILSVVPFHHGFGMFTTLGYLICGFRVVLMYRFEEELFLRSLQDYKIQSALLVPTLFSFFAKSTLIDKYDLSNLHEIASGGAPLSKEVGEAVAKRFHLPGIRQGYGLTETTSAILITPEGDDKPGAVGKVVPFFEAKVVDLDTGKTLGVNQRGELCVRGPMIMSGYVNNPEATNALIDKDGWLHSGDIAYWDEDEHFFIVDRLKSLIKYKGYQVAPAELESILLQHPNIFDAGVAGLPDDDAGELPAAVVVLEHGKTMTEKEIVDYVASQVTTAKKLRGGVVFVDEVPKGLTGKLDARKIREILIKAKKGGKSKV
# Chain of FLuc-C-NLuc (firefly luciferase) (P08659 2-550 L550V, form open): as above
# Chain of P. pyralis FLuc (P08659 whole entry): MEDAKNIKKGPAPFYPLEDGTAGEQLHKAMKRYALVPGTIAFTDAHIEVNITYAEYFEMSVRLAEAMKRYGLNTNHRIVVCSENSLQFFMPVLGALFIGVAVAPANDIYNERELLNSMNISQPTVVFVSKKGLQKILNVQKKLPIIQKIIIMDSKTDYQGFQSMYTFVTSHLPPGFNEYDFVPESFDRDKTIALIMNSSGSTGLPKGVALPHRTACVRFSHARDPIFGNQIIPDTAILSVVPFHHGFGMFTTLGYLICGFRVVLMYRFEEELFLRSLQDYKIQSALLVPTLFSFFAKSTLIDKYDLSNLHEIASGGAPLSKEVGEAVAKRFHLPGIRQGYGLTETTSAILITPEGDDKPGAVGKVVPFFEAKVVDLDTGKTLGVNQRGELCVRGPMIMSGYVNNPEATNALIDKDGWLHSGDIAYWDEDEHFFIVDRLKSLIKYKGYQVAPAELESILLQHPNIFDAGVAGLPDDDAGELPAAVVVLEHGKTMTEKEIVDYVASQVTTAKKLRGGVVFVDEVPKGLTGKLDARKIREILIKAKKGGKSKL
# T1 sequence (P08659 whole entry, looked up): as the sequence (P08659 whole entry) above
# T2 sequence (Q9GV45 other isoform, or with tags, fused parts or gaps with the stated changes): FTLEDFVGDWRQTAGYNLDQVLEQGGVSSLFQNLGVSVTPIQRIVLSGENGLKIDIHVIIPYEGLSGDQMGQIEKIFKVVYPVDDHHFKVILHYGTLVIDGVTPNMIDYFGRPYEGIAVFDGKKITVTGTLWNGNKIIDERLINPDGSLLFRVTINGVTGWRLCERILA
Compound,IC50 (FLuc-C-HiBiT),Efficacy (%) NLuc (- ATP) (NLuc),Efficacy (%) FLuc-C-NLuc SDR (-ATP) [1],Efficacy (%) FLuc E (P. pyralis FLuc; Clade S follow-up),pIC50 or pSDR50 FLuc E (P. pyralis FLuc; Clade S follow-up),IC50 (P. pyralis FLuc; Clade S follow-up),"% Activity (max response, + ATP) [2]","% Activity (max response, - ATP) ([2]; - ATP)",pIC50 or pSDR50 FLuc E (P. pyralis FLuc),IC50 (P. pyralis FLuc),"pSDR50 (clade S) ([2]; - ATP, dihydro-imidazo-oxazine (clade S))"
O=C(Nc1ccc(F)c(F)c1)C1CCN(C(=O)c2ncn3c2COC(c2ccccc2)C3)CC1 (stereo not drawn) [NCGC00449916-01],0.000989 mM,0.00%,0.00%,-98.00%,6.11,0.00078 mM,236.10%,8.48%,–,–,–
Cc1ccc(C2Cn3cnc(C(=O)N4CCC(C(=O)NCc5ccco5)CC4)c3CO2)cc1 (stereo not drawn) [NCGC00449893-01],0.00881 mM,0.00%,0.00%,-75.71%,5.01,0.00988 mM,104.01%,0.00%,–,–,–
CC(C)c1ccc(NC(=O)C2CCN(C(=O)c3ncn4c3COC(c3ccccc3)C4)CC2)cc1 (stereo not drawn) [NCGC00449909-01],0.00351 mM,0.00%,0.00%,-93.68%,5.51,0.00312 mM,370.54%,0.00%,–,–,–
O=C(NCc1ccccc1F)C1CCN(C(=O)c2ncn3c2COC(c2ccccc2)C3)CC1 (stereo not drawn) [NCGC00449783-01],0.00351 mM,14.02%,0.00%,-77.35%,–,–,339.74%,0.00%,5.41,0.00393 mM,–
O=C(Nc1ccc(F)cc1)C1CCN(C(=O)c2ncn3c2COC(c2ccccc2)C3)CC1 (stereo not drawn) [NCGC00449915-01],0.00176 mM,0.00%,0.00%,-91.87%,5.91,0.00124 mM,357.60%,0.00%,–,–,–
COc1ccc(NC(=O)C2CCN(C(=O)c3ncn4c3COC(c3ccccc3)C4)CC2)cc1Cl (stereo not drawn) [NCGC00449919-01],0.000881 mM,-11.50%,-15.13%,-103.24%,6.36,0.00044 mM,241.73%,38.71%,–,–,4.85
O=C(NCc1ccc(F)cc1Cl)C1CCN(C(=O)c2ncn3c2COC(c2ccccc2)C3)CC1 (stereo not drawn) [NCGC00449789-01],0.00881 mM,0.00%,0.00%,-100.38%,–,–,205.97%,0.00%,5.01,0.00988 mM,–
